Reference: ChEMBL document CHEMBL1145261, “Design and synthesis of novel diphenacoum-derived, conformation-restricted vitamin K 2,3-epoxide reductase inhibitors” (Bioorg Med Chem Lett, 2005)

Target: T1, Vitamin K epoxide reductase complex subunit 1 (Bos taurus, UniProt Q6B4J2)
T1 sequence (Q6B4J2 whole entry): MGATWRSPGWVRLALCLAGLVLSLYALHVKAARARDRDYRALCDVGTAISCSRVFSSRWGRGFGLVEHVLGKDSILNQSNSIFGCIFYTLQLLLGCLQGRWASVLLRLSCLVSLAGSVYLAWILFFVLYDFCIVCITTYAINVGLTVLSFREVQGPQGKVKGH
Assay: Inhibitory concentration against beef liver Vitamin K epoxide reductase (vitamin K 2,3-epoxide reductase)

Compound	IC50
O=c1oc2ccccc2c(O)c1C1CC(c2ccc(-c3ccccc3)cc2)Oc2ccccc21 (configuration not stated)	40 nM
O=c1oc2ccccc2c2c1C1CC(c3ccc(-c4ccccc4)cc3)(Oc3ccccc31)O2 (configuration not stated)	1000 nM
